According to ChEMBL document CHEMBL4613324, “Design, Synthesis, and Evaluation of a Series of Novel Super Long-Acting DPP-4 Inhibitors for the Treatment of Type 2 Diabetes” (J Med Chem, 2020):

Columns and labels:
CYP2C9 = CYP2C9 (Homo sapiens, UniProt P11712); assay: Stability assessed as recombinant human CYP2C9 mediated compound metabolism by measuring parent compound remaining after 30 mins relative to control; assay type: ADME; settings: read-out: Stability
CYP2B6 = CYP2B6 (Homo sapiens, UniProt P20813); assay: Stability assessed as recombinant human CYP2B6 mediated compound metabolism by measuring parent compound remaining after 30 mins relative to control; assay type: ADME; settings: read-out: Stability
Cytochrome P450 2B6 = target: T1, Cytochrome P450 2B6 (Homo sapiens, UniProt P20813); assay: Inhibition of recombinant human CYP2B6; assay type: ADME
T1 sequence (P20813 whole entry): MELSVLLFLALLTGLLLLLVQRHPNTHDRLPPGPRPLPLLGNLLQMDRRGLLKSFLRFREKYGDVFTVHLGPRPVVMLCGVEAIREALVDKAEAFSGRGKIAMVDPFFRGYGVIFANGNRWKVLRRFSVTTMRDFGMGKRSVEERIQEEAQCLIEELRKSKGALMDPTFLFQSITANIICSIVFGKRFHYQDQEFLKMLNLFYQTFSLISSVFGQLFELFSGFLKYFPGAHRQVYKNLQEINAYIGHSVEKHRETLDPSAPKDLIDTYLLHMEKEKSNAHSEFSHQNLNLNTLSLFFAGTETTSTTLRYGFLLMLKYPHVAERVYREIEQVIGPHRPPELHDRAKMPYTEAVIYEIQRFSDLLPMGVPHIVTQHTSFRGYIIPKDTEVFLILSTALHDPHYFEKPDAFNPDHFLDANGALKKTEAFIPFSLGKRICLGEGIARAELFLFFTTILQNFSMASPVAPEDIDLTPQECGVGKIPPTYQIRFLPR

[1] = Half life in ICR mouse at 2 mg/kg, po measured after 0.0833 to 120 hrs by LC-MS-MS analysis; assay type: ADME, organism-based; settings: in vivo
Cytochrome P450 3A4 = Cytochrome P450 3A4 (Homo sapiens, UniProt P08684); assay: Inhibition of recombinant human CYP3A4 using testosterone as substrate; assay type: ADME
[2] = AUC (0 to t) in ICR mouse at 2 mg/kg, po measured after 0.0833 to 120 hrs by LC-MS-MS analysis; assay type: ADME, organism-based; design: time upper 120 hr, time lower 0.083 hr, dose 2 mg/kg, route oral; settings: in vivo
Cytochrome P450 1A2 = target: T2, Cytochrome P450 1A2 (Homo sapiens, UniProt P05177); assay: Inhibition of recombinant human CYP1A2; assay type: ADME
T2 sequence (P05177 whole entry): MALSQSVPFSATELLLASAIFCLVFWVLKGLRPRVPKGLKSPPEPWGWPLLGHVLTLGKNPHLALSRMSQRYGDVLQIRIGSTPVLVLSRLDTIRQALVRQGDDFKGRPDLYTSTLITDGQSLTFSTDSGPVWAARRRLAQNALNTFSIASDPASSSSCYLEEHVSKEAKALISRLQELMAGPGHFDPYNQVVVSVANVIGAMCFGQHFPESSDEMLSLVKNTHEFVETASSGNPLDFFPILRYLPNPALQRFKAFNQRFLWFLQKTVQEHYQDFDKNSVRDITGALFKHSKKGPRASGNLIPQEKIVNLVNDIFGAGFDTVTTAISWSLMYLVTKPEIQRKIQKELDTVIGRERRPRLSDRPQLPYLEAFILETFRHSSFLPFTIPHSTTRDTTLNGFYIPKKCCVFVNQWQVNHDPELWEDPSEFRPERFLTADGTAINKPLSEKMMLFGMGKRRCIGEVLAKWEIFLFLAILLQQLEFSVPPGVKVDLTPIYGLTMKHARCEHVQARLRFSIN

Cytochrome P450 3A5 [3] = target: T3, Cytochrome P450 3A5 (Homo sapiens, UniProt P20815); assay: (§1) Inhibition of recombinant human CYP3A5 using midazolam as substrate; assay type: ADME
Cytochrome P450 2C8 [4] = target: T4, Cytochrome P450 2C8 (Homo sapiens, UniProt P10632); assay: (§2) Inhibition of recombinant human CYP2C8; assay type: ADME
T4 sequence (P10632 whole entry): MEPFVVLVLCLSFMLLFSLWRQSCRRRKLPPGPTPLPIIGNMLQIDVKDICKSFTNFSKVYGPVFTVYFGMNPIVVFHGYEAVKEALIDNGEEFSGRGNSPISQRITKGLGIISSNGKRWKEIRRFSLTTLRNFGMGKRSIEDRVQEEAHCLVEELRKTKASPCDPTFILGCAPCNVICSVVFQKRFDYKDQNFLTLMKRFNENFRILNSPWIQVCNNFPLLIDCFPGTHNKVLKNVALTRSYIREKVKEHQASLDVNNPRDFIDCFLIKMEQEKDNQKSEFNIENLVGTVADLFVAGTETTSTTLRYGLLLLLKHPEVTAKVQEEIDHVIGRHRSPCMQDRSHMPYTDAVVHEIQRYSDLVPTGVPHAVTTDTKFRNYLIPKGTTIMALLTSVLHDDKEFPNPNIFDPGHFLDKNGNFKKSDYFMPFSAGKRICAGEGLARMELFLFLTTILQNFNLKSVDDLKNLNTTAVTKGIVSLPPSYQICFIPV

[5] = Half life in ICR mouse at 0.5 mg/kg, iv measured after 0.0833 to 120 hrs by LC-MS-MS analysis; assay type: ADME, organism-based; settings: in vivo
[6] = AUC in female Sprague-Dawley rat during 3-month repeated dose toxicology study; assay type: ADME; settings: in vivo
Cytochrome P450 3A5 [7] = target: T3, Cytochrome P450 3A5; assay: Inhibition of recombinant human CYP3A5 using testosterone as substrate; assay type: ADME
Cytochrome P450 2D6 = Cytochrome P450 2D6 (Homo sapiens, UniProt P10635); assay: Inhibition of recombinant human CYP2D6; assay type: ADME
Cytochrome P450 2C19 = Cytochrome P450 2C19 (Homo sapiens, UniProt P33261); assay: Inhibition of recombinant human CYP2C19; assay type: ADME
[8] = Clearance in ICR mouse at 0.5 mg/kg, iv measured after 0.0833 to 120 hrs by LC-MS-MS analysis; assay type: ADME, organism-based; settings: in vivo
Cytochrome P450 2C8 [9] = target: T4, Cytochrome P450 2C8; assay: as §2; assay type: ADME; remark: listed apart in the source
[10] = Toxicity in male Sprague-Dawley rat during 3-month repeated dose toxicology study; settings: in vivo
Cytochrome P450 2A6 [11] = target: T5, Cytochrome P450 2A6 (Homo sapiens, UniProt P11509); assay: (§3) Inhibition of recombinant human CYP2A6; assay type: ADME
T5 sequence (P11509 whole entry): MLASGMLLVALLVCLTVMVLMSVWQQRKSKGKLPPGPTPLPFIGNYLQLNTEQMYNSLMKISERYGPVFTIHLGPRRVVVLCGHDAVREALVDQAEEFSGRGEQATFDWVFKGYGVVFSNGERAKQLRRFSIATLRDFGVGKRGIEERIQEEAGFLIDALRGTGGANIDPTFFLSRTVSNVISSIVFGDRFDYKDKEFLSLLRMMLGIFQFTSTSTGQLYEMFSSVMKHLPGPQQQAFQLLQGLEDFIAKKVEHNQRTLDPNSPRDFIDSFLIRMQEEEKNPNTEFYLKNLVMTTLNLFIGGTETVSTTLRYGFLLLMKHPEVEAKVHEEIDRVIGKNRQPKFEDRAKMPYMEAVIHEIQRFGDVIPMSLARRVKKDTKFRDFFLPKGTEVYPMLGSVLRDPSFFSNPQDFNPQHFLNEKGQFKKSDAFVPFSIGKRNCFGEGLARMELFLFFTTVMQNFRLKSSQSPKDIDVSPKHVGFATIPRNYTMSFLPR

Cytochrome P450 3A5 [12] = target: T3, Cytochrome P450 3A5; assay: as §1; assay type: ADME; remark: listed apart in the source
Cytochrome P450 2A6 [13] = target: T5, Cytochrome P450 2A6; assay: as §3; assay type: ADME; remark: listed apart in the source
Dipeptidyl peptidase 8 = Dipeptidyl peptidase 8 (Homo sapiens, UniProt Q6V1X1); assay: Inhibition of human recombinant DPP8 incubated for 15 mins using Gly-Pro-7-AMC substrate
Cytochrome P450 2C8 [14] = target: T4, Cytochrome P450 2C8; assay: as §2; assay type: ADME; remark: listed apart in the source

T3 sequence (P20815 whole entry): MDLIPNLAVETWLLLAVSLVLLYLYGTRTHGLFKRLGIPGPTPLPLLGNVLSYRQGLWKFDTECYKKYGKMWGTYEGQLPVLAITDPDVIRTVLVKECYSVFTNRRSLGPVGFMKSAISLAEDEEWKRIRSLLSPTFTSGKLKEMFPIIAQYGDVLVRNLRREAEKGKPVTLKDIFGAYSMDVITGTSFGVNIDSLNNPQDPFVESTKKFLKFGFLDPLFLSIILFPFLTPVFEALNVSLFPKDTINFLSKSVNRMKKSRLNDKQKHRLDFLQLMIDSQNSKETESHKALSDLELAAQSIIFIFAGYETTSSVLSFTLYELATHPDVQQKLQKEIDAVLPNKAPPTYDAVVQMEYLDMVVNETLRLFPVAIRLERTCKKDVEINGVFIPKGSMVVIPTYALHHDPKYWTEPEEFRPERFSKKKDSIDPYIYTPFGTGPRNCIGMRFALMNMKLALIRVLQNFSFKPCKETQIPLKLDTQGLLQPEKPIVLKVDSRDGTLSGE
Chain of Cytochrome P450 2D6 (P10635 whole entry): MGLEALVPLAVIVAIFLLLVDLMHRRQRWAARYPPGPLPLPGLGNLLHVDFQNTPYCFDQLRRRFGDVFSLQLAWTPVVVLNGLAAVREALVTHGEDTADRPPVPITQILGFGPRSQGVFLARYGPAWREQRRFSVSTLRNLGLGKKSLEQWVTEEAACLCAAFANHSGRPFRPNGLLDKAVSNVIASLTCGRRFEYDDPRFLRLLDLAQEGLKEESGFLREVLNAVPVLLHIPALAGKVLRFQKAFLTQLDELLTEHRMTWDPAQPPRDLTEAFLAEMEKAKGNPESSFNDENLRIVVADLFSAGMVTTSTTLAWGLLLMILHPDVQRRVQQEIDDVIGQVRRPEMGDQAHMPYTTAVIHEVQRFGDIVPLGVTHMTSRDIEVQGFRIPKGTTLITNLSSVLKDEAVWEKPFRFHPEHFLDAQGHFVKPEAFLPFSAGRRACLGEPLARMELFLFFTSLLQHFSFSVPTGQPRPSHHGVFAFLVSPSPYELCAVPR
Chain of Cytochrome P450 2C19 (P33261 whole entry): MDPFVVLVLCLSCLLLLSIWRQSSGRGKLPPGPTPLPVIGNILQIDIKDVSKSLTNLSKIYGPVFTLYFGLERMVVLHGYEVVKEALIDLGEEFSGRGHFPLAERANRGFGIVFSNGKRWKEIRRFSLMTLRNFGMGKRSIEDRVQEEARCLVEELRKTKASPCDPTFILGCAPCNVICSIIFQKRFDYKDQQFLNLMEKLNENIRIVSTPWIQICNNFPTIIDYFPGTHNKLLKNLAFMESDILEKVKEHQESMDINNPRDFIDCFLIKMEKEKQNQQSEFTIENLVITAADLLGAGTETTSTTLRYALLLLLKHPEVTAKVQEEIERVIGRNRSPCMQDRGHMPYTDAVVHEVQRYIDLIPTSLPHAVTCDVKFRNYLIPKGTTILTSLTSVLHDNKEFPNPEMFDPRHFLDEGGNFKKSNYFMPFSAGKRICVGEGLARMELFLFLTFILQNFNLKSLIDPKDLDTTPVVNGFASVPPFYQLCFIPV
Chain of Dipeptidyl peptidase 8 (Q6V1X1 whole entry): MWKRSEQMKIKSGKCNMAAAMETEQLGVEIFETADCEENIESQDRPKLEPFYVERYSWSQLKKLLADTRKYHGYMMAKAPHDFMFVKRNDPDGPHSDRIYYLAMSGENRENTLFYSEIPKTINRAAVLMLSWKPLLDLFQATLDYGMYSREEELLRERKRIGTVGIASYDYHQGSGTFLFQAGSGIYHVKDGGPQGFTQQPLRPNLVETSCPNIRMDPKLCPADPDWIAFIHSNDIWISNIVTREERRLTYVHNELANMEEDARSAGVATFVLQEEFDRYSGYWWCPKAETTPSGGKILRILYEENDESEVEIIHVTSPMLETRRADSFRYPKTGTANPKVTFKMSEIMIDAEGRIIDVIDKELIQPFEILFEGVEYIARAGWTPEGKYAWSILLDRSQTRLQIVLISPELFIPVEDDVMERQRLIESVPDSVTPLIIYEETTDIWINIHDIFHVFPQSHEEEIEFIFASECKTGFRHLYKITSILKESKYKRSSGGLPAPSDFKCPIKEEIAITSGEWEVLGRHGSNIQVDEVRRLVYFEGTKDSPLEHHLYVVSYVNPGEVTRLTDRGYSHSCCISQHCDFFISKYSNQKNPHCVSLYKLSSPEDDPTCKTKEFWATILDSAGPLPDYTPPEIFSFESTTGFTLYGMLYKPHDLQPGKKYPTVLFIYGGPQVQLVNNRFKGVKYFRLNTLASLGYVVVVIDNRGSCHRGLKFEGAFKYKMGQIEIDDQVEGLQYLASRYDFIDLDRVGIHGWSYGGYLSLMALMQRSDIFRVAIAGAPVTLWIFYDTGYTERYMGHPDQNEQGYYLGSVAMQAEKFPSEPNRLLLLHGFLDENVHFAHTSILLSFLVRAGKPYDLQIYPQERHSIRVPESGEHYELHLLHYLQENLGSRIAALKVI
Chain of CYP2C9 (P11712 whole entry): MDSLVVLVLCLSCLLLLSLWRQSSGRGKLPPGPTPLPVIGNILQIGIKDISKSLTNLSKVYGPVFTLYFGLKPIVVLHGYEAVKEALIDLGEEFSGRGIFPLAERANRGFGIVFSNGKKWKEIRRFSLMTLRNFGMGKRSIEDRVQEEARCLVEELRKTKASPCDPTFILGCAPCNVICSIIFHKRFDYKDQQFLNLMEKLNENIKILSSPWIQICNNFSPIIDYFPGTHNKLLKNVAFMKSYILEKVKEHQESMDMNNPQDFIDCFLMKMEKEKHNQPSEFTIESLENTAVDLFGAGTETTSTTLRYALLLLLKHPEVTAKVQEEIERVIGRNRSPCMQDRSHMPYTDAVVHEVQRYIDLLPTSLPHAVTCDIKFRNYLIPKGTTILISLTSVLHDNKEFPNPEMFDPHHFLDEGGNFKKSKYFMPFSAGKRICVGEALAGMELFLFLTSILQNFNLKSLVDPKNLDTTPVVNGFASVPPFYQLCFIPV
Chain of Cytochrome P450 3A4 (P08684 whole entry): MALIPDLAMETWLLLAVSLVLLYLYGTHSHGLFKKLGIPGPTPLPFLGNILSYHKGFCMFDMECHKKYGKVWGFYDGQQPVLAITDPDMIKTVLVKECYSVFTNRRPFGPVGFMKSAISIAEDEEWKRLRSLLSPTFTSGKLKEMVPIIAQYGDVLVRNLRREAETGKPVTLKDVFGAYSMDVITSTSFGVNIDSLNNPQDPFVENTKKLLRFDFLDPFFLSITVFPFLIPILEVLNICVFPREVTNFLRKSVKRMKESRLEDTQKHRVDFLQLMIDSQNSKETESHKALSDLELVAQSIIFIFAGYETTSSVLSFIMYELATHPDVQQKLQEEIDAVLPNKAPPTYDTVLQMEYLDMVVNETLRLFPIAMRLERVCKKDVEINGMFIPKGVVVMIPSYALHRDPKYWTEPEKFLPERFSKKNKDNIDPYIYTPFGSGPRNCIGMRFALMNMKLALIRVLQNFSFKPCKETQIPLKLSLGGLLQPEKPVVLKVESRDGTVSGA

SMILES: CS(=O)(=O)n1cc2c(n1)CN([C@@H]1C[C@H](N)[C@@H](c3cc(F)ccc3F)O[C@@H]1C(F)(F)F)C2 [COFROGLIPTIN]
- remaining at 0.5 h (CYP2C9): > 95%
- remaining at 0.5 h (CYP2B6): > 95%
- IC50 (Cytochrome P450 2B6): > 100 µM
- half-life [1]: 29.9 h
- IC50 (Cytochrome P450 3A4): > 100 µM
- AUC(0-t) [2]: 7.9 µg·h/mL
- IC50 (Cytochrome P450 1A2): > 100 µM
- IC50 (Cytochrome P450 3A5 [3]): > 100 µM
- IC50 (Cytochrome P450 2C8 [4]): > 100 µM
- half-life [5]: 25.6 h
- AUC [6]: 4240 µg·h/mL
- IC50 (Cytochrome P450 3A5 [7]): > 100 µM
- IC50 (Cytochrome P450 2D6): > 100 µM
- IC50 (Cytochrome P450 2C19): > 100 µM
- clearance [8]: 2.57 mL/min/kg
- IC50 (Cytochrome P450 2C8 [9]): 76.3 µM
- NOAEL at 3 month [10]: 300 mg/kg
- IC50 (Cytochrome P450 2A6 [11]): > 100 µM
- IC50 (Cytochrome P450 3A5 [12]): 45.8 µM
- IC50 (Cytochrome P450 2A6 [13]): > 100 µM
- IC50 (Dipeptidyl peptidase 8): > 100 µM
- IC50 (Cytochrome P450 2C8 [14]): > 100 µM
